As a reminder, the inhibition is how much of the control response was suppressed.

Data set [1] relates to Leishmania donovani. The data set can be described thus: Antileishmanial activity against Leishmania donovani MHOM/IN/80/Dd8 amastigotes harboring luciferase reporter gene infected in mouse J774 cells at 25 uM after 72 hrs by Steady-Glo luminescence assay relative to control. The data set is classed as functional. The note with it: for inhibition at 25 µM: MHOM/IN/80/Dd8, J774, 72 h. In general terms: A reporter such as luciferase makes a cellular process visible.

Data set [2] relates to Leishmania donovani. The data set can be described thus: Antileishmanial activity against Leishmania donovani MHOM/IN/80/Dd8 amastigotes harboring luciferase reporter gene infected in mouse J774 cells at 50 uM after 72 hrs by Steady-Glo luminescence assay relative to control. The data set is classed as functional. The note with it: MHOM/IN/80/Dd8, J774, 72 h.
Data set [3] is described as follows: Cytotoxicity against African green monkey Vero cells assessed as cell viability at 100 uM by MTT assay relative to control. The data set is classed as cell-based. Particulars: chlorocebus sabaeus, read-out: Activity. On the technique in general: Tetrazolium assays rely on reduction of a dye to a coloured formazan, in cell work by metabolically active cells.
A short description of data set [4]: Cytotoxicity against African green monkey Vero cells assessed as cell viability at 50 uM by MTT assay relative to control. Format: cell-based. Particulars: chlorocebus sabaeus, read-out: Activity.
Data set [5] is described as follows: Cytotoxicity against African green monkey Vero cells assessed as cell viability at 25 uM by MTT assay relative to control. The data set is classed as cell-based. The note with it: chlorocebus sabaeus, read-out: Activity.
Data set [6] concerns Leishmania donovani. The data set can be described thus: Antileishmanial activity against Leishmania donovani MHOM/IN/80/Dd8 amastigotes harboring luciferase reporter gene infected in mouse J774 cells at 100 uM after 72 hrs by Steady-Glo luminescence assay relative to control. The data set is classed as functional. Particulars: MHOM/IN/80/Dd8, J774, 72 h.
In data set [7] the test system is Leishmania donovani. The data set can be described thus: Antileishmanial activity against promastigote stage of Leishmania donovani MHOM/IN/80/Dd8 harboring luciferase reporter gene at 100 uM after 48 hrs by Steady-Glo luminescence assay relative to control. Format: functional. The note with it: MHOM/IN/80/Dd8, 48 h.
Data set [8] has as its system Leishmania donovani. The data set can be described thus: Antileishmanial activity against promastigote stage of Leishmania donovani MHOM/IN/80/Dd8 harboring luciferase reporter gene at 25 uM after 48 hrs by Steady-Glo luminescence assay relative to control. Format: functional. The note with it: for inhibition at 25 µM: MHOM/IN/80/Dd8, 48 h.
Data set [9] concerns Leishmania donovani. As to the kind of experiment: Antileishmanial activity against promastigote stage of Leishmania donovani MHOM/IN/80/Dd8 harboring luciferase reporter gene at 50 uM after 48 hrs by Steady-Glo luminescence assay relative to control. Format: functional. The note with it: for inhibition at 50 µM: MHOM/IN/80/Dd8, 48 h.

Active and inactive are the calls of the source. The calls are words filed in the database; no cut-off is given here.

As to `CSc1ccc(C(=O)C(c2ccc(Cl)c(Cl)c2)C(NC(=O)c2ccc(Br)cc2)c2cccc3ccccc23)cc1` (stereo not given), the inhibition at 25 µM in the data set on Leishmania donovani [1] turned out to be 21.2%; with Leishmania donovani [8], 56.3%. For the same compound, the figures for the inhibition at 50 µM in the data set on Leishmania donovani [2] and in the data set on Leishmania donovani [9] were 38.3% and 74.9%, respectively. For the same compound, in [3], the viability at 100 µM was determined as 88.5%. For the same compound, the viability at 50 µM in data set [4] worked out at 90.2%. In data set [5], the viability at 25 µM amounted to 92.8%. The inhibition at 100 µM in the data set on Leishmania donovani [6] was 39.2%; in the data set on Leishmania donovani [7] it was 77.2%.
For `CSc1ccc(C(=O)/C(=C/c2ccccn2)c2ccc(Cl)c(Cl)c2)cc1`, the results for the inhibition at 25 µM with Leishmania donovani [1] and in the data set with Leishmania donovani [8] were 17.5% and 53.4%, respectively. Further, the results for the inhibition at 50 µM in the data set on Leishmania donovani [2] and in the data set with Leishmania donovani [9] were 36.2% and 74.6%, respectively. In addition, in data set [3], the viability at 100 µM worked out at 89.6%. Further, the viability at 50 µM in data set [4] worked out at 93.6%. In addition, the viability at 25 µM in [5] was found to be 97.9%. In addition, the inhibition at 100 µM in the data set with Leishmania donovani [6] turned out to be 38.5%; in the data set with Leishmania donovani [7], 76.6%.
In the case of `CSc1ccc(C(=O)/C(=C/c2cccnc2)c2ccc(Cl)c(Cl)c2)cc1`, the inhibition at 25 µM is 34.3% with Leishmania donovani [1] and 46.7% with Leishmania donovani [8]. The inhibition at 50 µM with Leishmania donovani [2] came to 59.3%; in the data set on Leishmania donovani [9], 80.4%. Further, the viability at 100 µM in [3] is 88.6%. In addition, the viability at 50 µM in [4] turned out to be 89.6%. The viability at 25 µM in data set [5] was found to be 95.7%. The values for the inhibition at 100 µM in the data set with Leishmania donovani [6] and with Leishmania donovani [7] were 62.1% and 83.2%, respectively.
As for `CSc1ccc(C(=O)C(c2ccc(Cl)c(Cl)c2)C(NC(=O)c2ccccc2)c2cccc3ccccc23)cc1` (stereo not given), the values for the inhibition at 25 µM with Leishmania donovani [1] and in the data set on Leishmania donovani [8] were 43.1% and 33.4%, respectively. For the same compound, the figures for the inhibition at 50 µM in the data set with Leishmania donovani [2] and in the data set with Leishmania donovani [9] were 69.4% and 42.1%, respectively. The viability at 100 µM in data set [3] is 89.2%. The viability at 50 µM in data set [4] stood at 93.9%. The viability at 25 µM in data set [5] was determined as 98.2%. Besides, the values for the inhibition at 100 µM in the data set on Leishmania donovani [6] and in the data set on Leishmania donovani [7] were 72.3% and 45.6%, respectively.
Take `CSc1ccc(C(=O)C(c2ccc(Cl)c(Cl)c2)C(NC(C)=O)c2cccc3ccccc23)cc1` (stereo not given): the inhibition at 25 µM came out at 25% in the data set on Leishmania donovani [1] and 55.8% in the data set with Leishmania donovani [8]. For the same compound, the inhibition at 50 µM was found to be 31.5% with Leishmania donovani [2] and 74.3% with Leishmania donovani [9]. Also, the viability at 100 µM in [3] amounted to 87.2%. For the same compound, the viability at 50 µM in [4] was determined as 89.3%. Also, in data set [5], the viability at 25 µM turned out to be 90.1%. The inhibition at 100 µM in the data set on Leishmania donovani [6] was 36.4%; in the data set on Leishmania donovani [7] it was 78.6%.
In the case of `CSc1ccc(C(=O)C(c2ccc(Cl)c(Cl)c2)C(NC(=O)c2ccccc2)c2cc3ccccc3s2)cc1` (stereo not given), the inhibition at 25 µM came out at 11.8% in the data set with Leishmania donovani [1] and 22.4% in the data set on Leishmania donovani [8]. Besides, the inhibition at 50 µM in the data set on Leishmania donovani [2] came to 16.5%; in the data set with Leishmania donovani [9], 30.5%. The viability at 100 µM in data set [3] was 88%. For the same compound, the viability at 50 µM in data set [4] was determined as 92.4%. Further, in data set [5], the viability at 25 µM is 97.2%. Moreover, the inhibition at 100 µM amounted to 18.3% with Leishmania donovani [6] and 33.2% with Leishmania donovani [7].
Consider `CCOC(=O)C(C(=O)c1ccc(OC)cc1)C(NC(C)=O)c1ccc(C(C)(C)C)cc1` (stereo not given), for which the inhibition at 25 µM with Leishmania donovani [1] is 40.5%; in the data set on Leishmania donovani [8], 40.2%. Moreover, the inhibition at 50 µM with Leishmania donovani [2] came out at 46.1%; in the data set with Leishmania donovani [9], 52.4%. Besides, the viability at 100 µM in [3] is 89.5%. Also, the viability at 50 µM in data set [4] is 92.3%. Moreover, the viability at 25 µM in data set [5] is 94.5%. Besides, the results for the inhibition at 100 µM with Leishmania donovani [6] and with Leishmania donovani [7] were 53.1% and 54.3%, respectively.
Take `CSc1ccc(C(=O)C(c2ccc(Cl)c(Cl)c2)C(NC(=O)c2ccc(C)cc2)c2cccc3ccccc23)cc1` (stereo not given): in the data set on Leishmania donovani [1], 25 µM produced 14.3% inhibition. The same compound returned an inhibition at 50 µM in the data set on Leishmania donovani [2] of 23.8%. In addition, the viability at 100 µM in data set [3] was found to be 88.6%. For the same compound, the viability at 50 µM in data set [4] was found to be 89.6%. In addition, the viability at 25 µM in data set [5] is 90.5%. For the same compound, the inhibition at 100 µM in the data set with Leishmania donovani [6] came to 25.9%; in the data set on Leishmania donovani [7], 12.5%. The inhibition result in the data set on Leishmania donovani [8] and with Leishmania donovani [9] was “inactive” throughout.
As for `CSc1ccc(C(=O)C(c2ccc(Cl)c(Cl)c2)C(NC(=O)c2ccc(C)cc2)c2cc3ccccc3s2)cc1` (stereo not given), the inhibition at 25 µM in the data set with Leishmania donovani [1] was determined as 9.2%; in the data set on Leishmania donovani [8], 20.1%. Moreover, the inhibition at 50 µM is 17.6% in the data set with Leishmania donovani [2] and 22.4% with Leishmania donovani [9]. Also, in data set [3], the viability at 100 µM was 90.2%. For the same compound, the viability at 50 µM in data set [4] stood at 92.3%. Besides, the viability at 25 µM in data set [5] was determined as 95.3%. Besides, the inhibition at 100 µM is 21% in the data set on Leishmania donovani [6] and 24.2% with Leishmania donovani [7].
With `CSc1ccc(C(=O)/C(=C/c2cc3ccccc3s2)c2ccc(Cl)c(Cl)c2)cc1`, the inhibition entry in the data set on Leishmania donovani [1] is “inactive”. Besides, the inhibition at 50 µM in the data set with Leishmania donovani [2] turned out to be 2.6%; with Leishmania donovani [9], 70.3%. Further, the viability at 100 µM in [3] was 87%. The viability at 50 µM in data set [4] came out at 91.6%. Further, the viability at 25 µM in data set [5] stood at 93.4%. Moreover, the figures for the inhibition at 100 µM with Leishmania donovani [6] and in the data set with Leishmania donovani [7] were 2.8% and 72.1%, respectively. Moreover, the inhibition at 25 µM in the data set on Leishmania donovani [8] was found to be 62.1%.
`CCOC(=O)C(C(=O)c1ccc(OC)cc1)C(NC(C)=O)c1ccc(C(C)C)cc1` (stereo not given): the inhibition at 25 µM was determined as 29.4% in the data set on Leishmania donovani [1] and 30.8% with Leishmania donovani [8]. The inhibition at 50 µM with Leishmania donovani [2] turned out to be 44.4%; with Leishmania donovani [9], 33.5%. Also, in data set [3], the viability at 100 µM was 90.4%. Further, in data set [4], the viability at 50 µM came to 96.5%. The viability at 25 µM in data set [5] amounted to 98.8%. The inhibition at 100 µM in the data set with Leishmania donovani [6] came out at 55.3%; in the data set on Leishmania donovani [7] it was 34%.
For `CCOC(=O)C(C(=O)c1ccc(OC)cc1)C(NC(C)=O)c1cc(OC)c(OC)c(OC)c1` (stereo not given), the figures for the inhibition at 25 µM with Leishmania donovani [1] and with Leishmania donovani [8] were 25.4% and 28.3%, respectively. The inhibition at 50 µM with Leishmania donovani [2] was determined as 51.1%; with Leishmania donovani [9], 40.2%. Besides, the viability at 100 µM in data set [3] came out at 88.9%. Also, in data set [4], the viability at 50 µM was 94.3%. Further, the viability at 25 µM in [5] is 97.8%. Further, the figures for the inhibition at 100 µM in the data set with Leishmania donovani [6] and in the data set with Leishmania donovani [7] were 51.3% and 43.1%, respectively.
Turning to `CSc1ccc(C(=O)C(c2ccc(Cl)c(Cl)c2)C(NC(=O)c2cccc(C)c2)c2cccc3ccccc23)cc1` (stereo not given), the inhibition at 25 µM with Leishmania donovani [1] came out at 5.9%; with Leishmania donovani [8] it was 27.2%. Also, the inhibition at 50 µM was found to be 14.5% in the data set with Leishmania donovani [2] and 36.4% with Leishmania donovani [9]. The viability at 100 µM in data set [3] turned out to be 87.6%. Further, the viability at 50 µM in data set [4] is 90.7%. Moreover, the viability at 25 µM in [5] came out at 95.8%. Besides, the inhibition at 100 µM came to 19.3% with Leishmania donovani [6] and 36.9% in the data set with Leishmania donovani [7].
Consider `CSc1ccc(C(=O)C(c2ccc(Cl)c(Cl)c2)C(NC(=O)c2cccc(C)c2)c2cc3ccccc3s2)cc1` (stereo not given), for which the inhibition at 25 µM with Leishmania donovani [1] stood at 12%; with Leishmania donovani [8], 24.3%. Besides, the inhibition at 50 µM in the data set on Leishmania donovani [2] was 21.9%; in the data set with Leishmania donovani [9] it was 30.4%. Moreover, in [3], the viability at 100 µM was found to be 87.3%. The viability at 50 µM in data set [4] came out at 90.6%. In addition, the viability at 25 µM in data set [5] was determined as 92.1%. Further, the inhibition at 100 µM in the data set with Leishmania donovani [6] was 27.2%; in the data set with Leishmania donovani [7], 35.1%.
Take `CCOC(=O)C(C(=O)c1ccc(OC)cc1)C(NC(C)=O)c1ccc(OC)c(OC)c1` (stereo not given): the inhibition at 25 µM in the data set on Leishmania donovani [1] came to 57.1%; in the data set with Leishmania donovani [8], 30.2%. Besides, the inhibition at 50 µM was found to be 58.1% with Leishmania donovani [2] and 35% in the data set with Leishmania donovani [9]. In addition, the viability at 100 µM in data set [3] turned out to be 88.5%. The viability at 50 µM in [4] is 96.7%. Also, the viability at 25 µM in [5] is 99.1%. In addition, the inhibition at 100 µM in the data set on Leishmania donovani [6] was 59.2%; in the data set on Leishmania donovani [7], 35.8%.
